Laboratory results published in patent US4419355A, “Condensed as-triazine derivatives and method of using the same” (Egyt Gyogyszervegyeszeti Gyar, priority 1980, dated 1983).

Assays:
[1] = tested on: Reserpine-ethanol narcose; test: Reserpine-ethanol narcose antagonism on rats; format: in vivo; details: for ED50: Rattus norvegicus, read-out: Reserpine-ethanol narcose ant. ED50; for Ther. index: reserpine-ethanol narcose ant.
Experimental: (§1) The experiments were carried out on the analogy of the tests described at point (a).

tetrabenazine ptosis [2] = test: Tetrabenazine ptosis antagonism on rats; format: in vivo; details: for ED50: Rattus norvegicus, read-out: Tetrabenazine ptosis ant. ED50; for Therapeutic index: tetrabenazine ptosis ant.
Experimental: as §1

tetrabenazine ptosis [3] = test: Tetrabenazine antagonism on mice; details: for ED50: Mus musculus, po; for Therapeutic index LD50/ED50: p.o., mice, tetrabenazine antagonism
Experimental: Groups of animals consisting of 10-20 mice each were examined. A 0.9% sodium chloride solution was administered to the mice of the control group in a dosage of 20 ml/kg. After 30 minutes 50 mg/kg of tetrabenazine were administered. The animals with closed interpalpebral zone were counted 30, 60, 90 and 120 minutes after the administration of the tetrabenazine. The data were summarized and the inhibition in comparison with the control was determined.

[4] = Acute toxicity on mice (oral); details: mouse, in vivo, p.o., CFLP mice, 20 ml/kg, 4 days observation
Experimental: The acute toxicity of the new compounds according to the invention was determined on white mice of both sexes weighing 18-24 g belonging to the strain CFLP. Administration was effected with an oral dosage of 20 ml/kg. After treatment the animals were kept under observation for 4 days.

[5] = Acute toxicity on rats (oral); details: rat, in vivo, p.o., Wistar rats, 0.5% suspension with carboxymethylcellulose
Experimental: The acute toxicity was investigated also on Wistar rats. A 0.5% suspension prepared from the test compound and carboxymethylcellulose was administered orally to the animals.

yohimbine toxicity = test: Potentiation of yohimbine toxicity on mice; format: in vivo; details: for ED50: Mus musculus, po; for Therapeutic index LD50/ED50: p.o., mice, yohimbine potentiation
Experimental: The experiments were carried out by the method of Quinton et al. The test compound was administered orally in a volume of 20 ml/kg half an hour before the administration of the standard yohimbine dose.

Question: With `CN(C)CCC=C1c2ccccc2CCc2ccccc21` [Amitriptylin, reference compound] as the compound, how does the ED50 [1] read?
Answer: 40 mg/kg

Question: What about the Ther. index [1] of the same compound?
Answer: 13.25

Question: What about the ED50 (tetrabenazine ptosis [2]) of the same compound?
Answer: 11.5 mg/kg

Question: What about the Therapeutic index (tetrabenazine ptosis [2]) of the same compound?
Answer: 46.1

Question: And the ED50 (tetrabenazine ptosis [3])?
Answer: 12 mg/kg

Question: What about the “Therapeutic index LD50/ED50” value (tetrabenazine ptosis [3]) of the same compound?
Answer: 18.75

Question: What about the LD50 at 96 h [4] of the same compound?
Answer: 225 mg/kg

Question: What about the LD50 [5] of the same compound?
Answer: 530 mg/kg

Question: What does the source list for `Clc1ccc(-c2ncn[n+]3ccccc23)cc1` [Compound B, 1-(4-chlorophenyl)-pyrido[2,1-f]-as-triazinium bromide]?
Answer: ED50 (tetrabenazine ptosis [3]): 14 mg/kg; Therapeutic index LD50/ED50 (tetrabenazine ptosis [3]): 64.2; LD50 at 96 h [4]: 900 mg/kg; ED50 (yohimbine toxicity): 50 mg/kg; Therapeutic index LD50/ED50 (yohimbine toxicity): 18.0

Question: With `Clc1ccc(-c2ncn[n+]3ccc4ccccc4c23)cc1` [Compound C, 1-(4-chlorophenyl)-as-triazino[6,1-a]-isoquinolinium bromide] as the compound, how does the ED50 [1] read?
Answer: 40 mg/kg

Question: And the Ther. index [1]?
Answer: 25.0

Question: And the ED50 (tetrabenazine ptosis [2])?
Answer: 5.6 mg/kg

Question: What about the Therapeutic index (tetrabenazine ptosis [2]) of the same compound?
Answer: 178.6

Question: What about the ED50 (tetrabenazine ptosis [3]) of the same compound?
Answer: 3.2 mg/kg

Question: What about the “Therapeutic index LD50/ED50” value (tetrabenazine ptosis [3]) of the same compound?
Answer: 187.5

Question: What about the LD50 at 96 h [4] of the same compound?
Answer: 600 mg/kg

Question: And the ED50 (yohimbine toxicity)?
Answer: 3.5 mg/kg

Question: What about the “Therapeutic index LD50/ED50” value (yohimbine toxicity) of the same compound?
Answer: 171.4

Question: What about the LD50 [5] of the same compound?
Answer: 1000 mg/kg

Question: With `c1ccc(-c2ncn[n+]3ccccc23)cc1` [Compound A, 1-phenyl-pyrido[2,1-f]-as-triazinium bromide] as the compound, how does the ED50 (tetrabenazine ptosis [3]) read?
Answer: 30 mg/kg

Question: And the “Therapeutic index LD50/ED50” value (tetrabenazine ptosis [3])?
Answer: 46.7

Question: And the LD50 at 96 h [4]?
Answer: 1400 mg/kg

Question: What about the ED50 (yohimbine toxicity) of the same compound?
Answer: 66 mg/kg

Question: And the “Therapeutic index LD50/ED50” value (yohimbine toxicity)?
Answer: 21.2
